Source: US20090004683A1, “Indicator Agent for Noninflammatory Stress Response and Use Thereof” (priority 2004, published 2009)

What was measured:
[1] = test system: Primary culture human skin keratinocytes; assay: IL-18 release from keratinocytes with paraquat stimulation; type: cell-based; settings: keratinocytes, 1 μM paraquat 15 minutes; SOD 1-20 U/ml or water-soluble vitamin E 100 nM-10 mM/ml
Method: Primary culture human skin keratinocytes (keratinocytes) were cultured in a basal medium for keratinocytes contained in petri dishes for cell culture 6 cm in diameter at 1.0-2.0×10^6/dish. This was cultured in the aforementioned medium containing 1 μM of paraquat, which is an active oxygen generator, for 15 minutes, after which the medium was exchanged with a paraquat-free medium, and the cells were further cultured for 1 hour, after which the medium was collected, and the concentration of IL-18 protein in the medium was measured.

[2] = molecular target: T1, caspase-1 (Mus musculus, UniProt P29452); assay: Caspase-1 activity in the adrenal of restraint stress mice (Ac-YVAD-MCA fluorescent substrate); type: in vivo; settings: given i.p. during restraint
T1 construct: from tissue; host or cells: mouse adrenal (homogenate)
T1 sequence (P29452 119-296 limits assumed): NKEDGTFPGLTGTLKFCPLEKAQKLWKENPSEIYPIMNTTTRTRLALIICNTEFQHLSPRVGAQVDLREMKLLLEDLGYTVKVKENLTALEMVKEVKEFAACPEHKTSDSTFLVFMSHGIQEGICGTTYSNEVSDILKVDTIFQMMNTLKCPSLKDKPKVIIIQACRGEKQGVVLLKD
T1 sequence (P29452 315-402 limits assumed): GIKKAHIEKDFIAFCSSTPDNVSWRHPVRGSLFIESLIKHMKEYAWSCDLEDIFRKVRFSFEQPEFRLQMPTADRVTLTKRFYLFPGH
Method: (§1) Each mouse was kept in a restrainer for 1 hour, and Ac-YVAD-CHO (200 μM/50 μl PBS(−)), Z-FA-fmk (100 μM/50 μl PBS(−)) and SB-203580 (100 μg/50 μl PBS(−) per mouse) were administered intraperitoneally. 1 and 3 hours after the start of restraint, SOD-1 (20 U) and DPI (30 μg) were administered intraperitoneally to the mouse, and samples were analyzed by Western blotting.
Caspase-1 activity in the adrenal was measured using a caspase assay kit (manufactured by BD-Pharmingen). Describing briefly, a homogenate of adrenal tissue was incubated with Ac-YVAD-MCA (acetyl-L-tyrosyl-L-valyl-L-alanyl-L-aspartic acid 4-methyl-coumaryl-7-amide), which is a fluorescent substrate for caspase-1, and the MCA leaving from the aforementioned substrate was measured using a fluorescence plate reader (excitation wavelength 380 nm, irradiation wavelength 420-460 nm).

[3] = test system: Primary culture human skin keratinocytes; assay: IL-18 release from keratinocytes with UV-B ray irradiation; type: cell-based; settings: 100 mJ UV-B, SOD 1-20 U/ml or water-soluble vitamin E 100 nM-10 mM/ml
Method: Primary culture human skin keratinocytes (keratinocytes: purchased from CAMBREX Company) were cultured in a basal medium for keratinocytes contained in petri dishes for cell culture 6 cm in diameter at 1.0-2.0×10^6/dish. This was irradiated with 100 mJ of ultraviolet B rays (UV-B rays), after which the cells were cultured for 1 hour, after which the medium was collected, and the concentration of IL-18 protein in the medium was measured. Also, after the UV-B ray treatment, the cells were cultured in a medium containing SOD (1, 2.5, 5, 10, 20 U/ml), which is an active oxygen eliminator, or water-soluble vitamin E (100 nM, 1, 2.5, 5, 10 mM/ml), and the concentration of IL-18 protein in the medium was measured. In the keratinocytes, the activation and release of IL-18 by the active oxygen molecular species were observed. Furthermore, these were suppressed by SOD, which is an active oxygen eliminator, or by vitamin E, which neutralizes active oxygen, dose-dependently (FIGS. 7C and 7D).

[4] = test system: phosphorylated (Thr180/Tyr182) P38 MAP kinase; assay: Phosphorylated P38MAP kinase in the adrenal of restraint stress mice (Western blotting); type: in vivo, mouse; settings: SOD-1 20 U i.p. 1 and 3 hours after start of restraint, FIG. 4A
Method: as §1
Western blot analysis of IL-18 and phosphorylated P38MAP kinase in adrenal tissue was performed as described below. The adrenal tissue was homogenized in an immunoprecipitation (IP) buffer solution (50 mM Tris pH 7.4, 150 mM NaCl, 0.5% NP-40 and 0.5% sodium deoxycholate) containing a protease inhibitor mixture (manufactured by Roche Diagnostics) using a Polytron homogenizer. The homogenate obtained (100 μg protein) was pre-clarified using protein A/G agarose (Exalpha Biologicals, Inc.), incubated with the anti-mouse IL-18 monoclonal antibody or the anti-phosphorylated (Thr180/Tyr182) P38 MAP kinase antibody and protein A/G agarose (50 μl), and centrifuged (at 13000×g for 25 minutes, 4° C.). The precipitate was boiled, and the adrenal protein was recovered, electrophoresed in 10-20% SDS-polyacrylamide gradient gel, and electrically transferred to a Hybond ECL (manufactured by Amersham) nitrocellulose membrane. The aforementioned membrane was incubated with an antibody (IL-18, phosphorylated (Thr180/Tyr182) P38 MAP kinase, caspase-1 or caspase-11), and the reacted protein was detected using an ECL plus system (manufactured by Amersham biosciences). Procaspase-11 and activated P38 MAP kinase were quantified using a Science Lab 99 image analysis system (manufactured by Fujifilm).

[5] = test system: IL-18; assay: Plasma IL-18 level in restraint stress mice (ELISA); type: in vivo, mouse; settings: given i.p. during restraint (Ac-YVAD-CHO 200 μM/50 μl, Z-FA-fmk 100 μM/50 μl, SB-203580 100 μg, SOD-1 20 U, DPI 30 μg)
Method: (§2) For restraint stress, each mouse was kept in a restrainer (a round plastic tube 27 mm in diameter) for 1, 3 or 6 hours, and IL-18 levels were measured. Regarding the analysis of IL-6, each mouse was restrained as described above, and then housed in the starting cage for 6 hours, after which a measurement was performed.
After restraint, each mouse was anesthetized with diethyl ether, and blood was drawn into an EDTA-containing tube. Plasma was separated by centrifugation at 4° C. and 10000×g for 10 minutes, and stored at −80° C. IL-18 and IL-6 were analyzed by ELISA using Quantikine™ immunoassay kit (R&D Systems) and OptEIA™ (BD-Pharmingen), respectively.
(§3) The anti-ACTH antiserum (50 μl, 1:1), dexamethasone (1 ng/50 μl PBS(−)) or the anti-IL-18 antibody (50 μl, 1:1) was administered intraperitoneally to each mouse; after 10 minutes elapsed, the animal was kept in a restraint tube for 6 hours. Synthetic ACTH (250 μg/50 μl PBS(−)) was injected to the left leg; after 6 hours elapsed, the mice were subjected to the experiment.
as §1

[6] = test system: IL-18 precursor; assay: IL-18 (precursor) level in the adrenal of restraint stress mice; type: in vivo, mouse; settings: given i.p. during restraint
Method: as §2, §3, §1
Western blot analysis of IL-18 and phosphorylated P38MAP kinase in adrenal tissue was performed as described below. […] Procaspase-11 and activated P38 MAP kinase were quantified using a Science Lab 99 image analysis system (manufactured by Fujifilm).

SOD: superoxide dismutase (SOD)-1 purchased from Sigma; active oxygen eliminator
activation and release of IL-18 into the medium [1]: suppressed | stress-induced increase in caspase-1 activity in the adrenal [2]: reduced | activation and release of IL-18 into the medium [3]: suppressed | inhibition of the phosphorylation of P38MAP kinase in the adrenal [4]: about 70% | stress-induced increase in plasma IL-18 level [5]: reduced | IL-18 precursor protein level in the adrenal [6]: did not reduce
